From US6706509B2, “Oncoprotein protein kinase” (The Regents of the University of California, priority 1993, dated 2004)

Tests used:
[1] = tested on: jun-D; test: Northern blot of jun-D expression in Jurkat cells; type: cell-based, human; conditions: CsA 100 ng/ml, 40 minutes
Protocol: Exponentially growing Jurkat cells (10^6/ml) grown in complete RPMI medium was pretreated with CsA for 15 minutes when applicable, then subjected to various treatments for another 40 minutes. Total cytoplasmic RNA was extracted as previously described (Angel, et al., Cell, 49:729-739, 1987). 10 μg RNA was denatured by incubating with glyoxal for 60 minutes at 55° C. and fractionated on a 1% agarose gel in phosphate buffer. The fractionated RNA was blotted to Zetabind Nylon membrane (CUNO Labs) and hybridized to ^32P-labelled cDNA probes specific for c-jun, jun-B, jun-D, c-fos, α-tubulin and IL-2.
During the first stage of T lymphocyte activation, early response genes are rapidly included (Crabtree, Science, 243:355,361, 1989; Zipfel, et al., Mol Cell Bio., 9:1041-1048, 1989). Induction of jun and fos genes during activation of the Jurkat T cell line was investigated. […] After fractionation of 10 μg samples on an agarose gel and transfer to nylon membrane, the level of c-jun, jun-B, jun-D, c-fos and α-tubulin expression was determined by hybridization to random primed cDNA probes.

[2] = tested on: JNK1; test: Epitope-tagged JNK1 protein kinase activity in transfected COS cells; type: cell-based; conditions: 10 nM EGF or 100 nM TPA
Protocol: JNK1 protein kinase activity was detected in the immune-complex. Immunecomplex kinase assays using either M2 immunoprecipitates or purified JNK1, JNK-46, and ERK1 or ERK2 were performed at 30° C. for 20 mins using 3 μg of substrate, 20 μM ATP and 5 μCi of [γ-^32P]ATP in 30 μl of kinase buffer (25 mM Hepes (pH 7.6), 20 mM MgCl2, 20 mM β-glycerophosphate, 20 mM p-nitrophenyl phosphate, 0.1 mM Na orthovanadate, 2 mM DTT). The reactions were terminated with Laemmli sample buffer and the products were resolved by SDS-PAGE (12% gel). JNK1 protein activity was also measured after SDS-PAGE by the in-gel kinase assay with the substrate GST-cJun(1-79) as described by Hibi, et al., supra, (1993). Solid-phase protein kinase assays were performed as described by Hibi, et al., supra, (1993). Clarified cell extracts were incubated with GST fusion proteins immobilized on GSH-agarose beads. After 3 hours at 4° C., the beads were washed extensively and bound JNK1 was detected by the addition of [γ-^32P]ATP. The reaction was terminated after 10 mins at 30° C. and the products were resolved by SDS-PAGE. The incorporation of [^32P]phosphate was visualized by autoradiography and quantitated with a phosphorimager and ImageQuant software (Molecular Dynamics Inc., Sunnyvale, Calif.). The methods used for phosphopeptide mapping (Boyle, et al., Cell 64:573-584, 1991) and phosphoamino acid analysis (Alvarez, et al., J. Biol. Chem 266:15227-15285, 1991) were described previously.
Epitope-tagged JNK1 was expressed in COS cells. Control experiments were performed using mock-transfected cells. After 48 hours, the cells were treated either without or with 100 nM TPA, 10 nM EGF, or 80 J/m^2 UV-C and incubated for 1 hr. The cells were lysed in RIPA buffer and the JNK1 proteins were isolated by immunoprecipitation with the M2 monoclonal antibody. JNK1 protein kinase activity was measured after SDS-PAGE using an in-gel kinase assay with the substrate GST-cJun(1-79) polymerized into the gel.
COS-1 cells were maintained in. Dulbecco's modified Eagle's medium supplemented with 5% […] (Gibco-BRL). Metabolic labeling with [^32P]phosphate was performed by incubation of cells in phosphate-free modified Eagle's medium (Flow Laboratories Inc.) supplemented with 0.1% fetal bovine serum and 1 mCi/ml [^32P]orthophosphate (Dupont-NEN). COS cells were treated with 10 nM EGF or 100 nM thorbol myristate acetate. The cells were then incubated for defined times at 37° C. prior to harvesting and measurement of JNK1 protein kinase activity. The data are presented as arbitrary units. […] In contrast, exposure to UV radiation caused a marked increase in JNK1 activity.

| Compound | effect on potentiation of jun-D expression by TPA+A23187 [1] | JNK1 activation [2] | duration of JNK1 activation [2] |
| --- | --- | --- | --- |
| cyclosporin A [CsA] | not inhibited |  |  |
| CCCCCCCCCCCCCC(=O)O[C@@H]1[C@@H](C)[C@@]2(O)[C@@H](C=C(CO)C[C@]3(O)C(=O)C(C)=C[C@@H]23)[C@H]2C(C)(C)[C@]12OC(C)=O [TPA] |  | low level of JNK1 activation | approximately 2 hours |
